Legend:
[1] = molecular target: T1, Peroxisome proliferator-activated receptor alpha (Homo sapiens, UniProt Q07869)
T1 sequence (Q07869 whole entry): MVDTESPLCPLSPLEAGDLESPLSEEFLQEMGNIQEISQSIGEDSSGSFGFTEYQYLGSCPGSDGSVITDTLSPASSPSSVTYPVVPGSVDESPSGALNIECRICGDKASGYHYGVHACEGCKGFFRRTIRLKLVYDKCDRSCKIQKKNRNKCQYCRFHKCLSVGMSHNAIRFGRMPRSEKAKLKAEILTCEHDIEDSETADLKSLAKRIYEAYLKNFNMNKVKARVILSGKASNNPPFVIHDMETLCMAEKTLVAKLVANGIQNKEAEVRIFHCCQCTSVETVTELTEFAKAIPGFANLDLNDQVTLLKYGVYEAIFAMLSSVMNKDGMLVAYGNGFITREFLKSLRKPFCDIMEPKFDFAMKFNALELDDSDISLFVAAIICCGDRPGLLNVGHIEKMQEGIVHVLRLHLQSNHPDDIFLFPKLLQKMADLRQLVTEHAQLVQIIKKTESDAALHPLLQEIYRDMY
Description: Displacement of [3H]2-(4-(2-(3-(2,4-difluorophenyl)-1-heptylureido)ethyl)phenoxy)-2-methylbutanoic acid from human PPARalpha after 30 mins by SPA assay

[2] = molecular target: T2, Peroxisome proliferator-activated receptor delta (Homo sapiens, UniProt Q03181)
T2 sequence (Q03181 whole entry): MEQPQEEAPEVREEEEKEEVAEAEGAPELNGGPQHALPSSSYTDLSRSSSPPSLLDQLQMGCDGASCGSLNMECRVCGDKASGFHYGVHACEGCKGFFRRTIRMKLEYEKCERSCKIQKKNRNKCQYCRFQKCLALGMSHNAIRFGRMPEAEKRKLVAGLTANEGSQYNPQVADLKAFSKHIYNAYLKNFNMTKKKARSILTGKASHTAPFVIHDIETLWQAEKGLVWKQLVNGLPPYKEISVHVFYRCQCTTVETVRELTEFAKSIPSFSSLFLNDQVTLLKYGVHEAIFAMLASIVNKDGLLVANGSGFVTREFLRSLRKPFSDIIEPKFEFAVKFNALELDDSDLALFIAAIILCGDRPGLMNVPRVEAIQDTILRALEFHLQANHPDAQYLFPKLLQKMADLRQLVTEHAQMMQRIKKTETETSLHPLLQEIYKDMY
Description: Displacement of [3H]2-(4-(3-(4-acetyl-3-hydroxy-2 propyl-phenoxy)propoxy)phenoxy)acetic acid from human PPARdelta after 30 mins by SPA assay

[3] = molecular target: T2, Peroxisome proliferator-activated receptor delta; format: functional, cell-based, HepG2
Description: Agonist activity at human PPARdelta expressed in HepG2 cells after 16 hrs by luciferase reporter gene assay

Row | IC50 [1] [nM] | IC50 [2] [nM] | IC50 [3] [µM] | EC50 [3] [nM] | Compound
1 | 791 |  |  |  | O=C(O)COc1ccc(SCc2ccc(OCc3ccc(C(F)(F)F)cc3)cc2)c2c1CCCO2
2 | 311 | 586 | > 10 |  | Cc1cc(SCc2ccc(OCc3ccc(C(F)(F)F)cc3)cc2)c2c(c1OCC(=O)O)CCC2
3 | 1200 |  |  |  | O=C(O)COc1ccc(SCc2ccc(OCc3ccc(C(F)(F)F)cc3)cc2)c2c1CCC2
4 | 4190 | 69 |  | 585 | O=C(O)COc1ccc(SCc2ccc(OCc3cc(Cl)ccc3Cl)cc2)c2c1CCC2
5 | > 10000 | 191 |  | 13600 | O=C(O)COc1ccc(SCc2ccc(OCc3ccc(F)cc3)cc2)c2c1CCC2
6 | > 10000 | 1.7 |  | 70 | O=C(O)COc1ccc(SCc2cc(F)ccc2OCc2ccc(C(F)(F)F)cc2)c2c1CCC2
7 | 672 | 76 |  | 530 | O=C(O)COc1ccc(SCc2ccc(OCc3ccc(OC(F)(F)F)cc3)cc2)c2c1CCC2
8 | 4.7 |  |  |  | COc1cc(OCC(=O)O)c(C)cc1SCc1ccc(OCc2ccc(C(F)(F)F)cc2)cc1
9 | 578 | 19 |  | 252 | Cc1cc(SCc2ccc(OCc3ccc(C(F)(F)F)cc3)cc2)ccc1OCC(=O)O
10 | 3910 | 89 |  | 933 | O=C(O)COc1ccc(SCc2ccc(OCc3ccc(Cl)cc3)cc2)c2c1CCC2
11 | 4950 | 120 |  | 1970 | COc1ccc(COc2ccc(CSc3ccc(OCC(=O)O)c4c3CCC4)cc2)cc1
12 | > 10000 | 125 |  | 2210 | O=C(O)COc1ccc(SCc2ccc(OCc3ccccc3)cc2)c2c1CCC2
13 | > 10000 | 10.4 |  | 230 | O=C(O)COc1ccc(SCc2ccccc2OCc2ccc(C(F)(F)F)cc2)c2c1CCC2
14 | 3110 | 62 |  |  | O=C(O)COc1ccc(SCc2ccc(F)cc2OCc2ccc(C(F)(F)F)cc2)c2c1CCC2
15 | > 10000 | 286 |  | 2610 | O=C(O)COc1ccc(SCc2c(F)cccc2OCc2ccc(C(F)(F)F)cc2)c2c1CCC2
16 | 128 | 20 |  | 374 | Cc1cc(SCc2ccc(OCc3ccc(C(F)(F)F)cc3)cc2)c(Cl)cc1OCC(=O)O
17 | 428 | 313 | > 10 |  | Cc1cc(SCc2ccc(OCc3ccc(C(F)(F)F)cc3)cc2)c2c(c1OCC(=O)O)CCCO2
18 | 1540 | 148 |  | 267 | CC(C)(C)c1ccc(COc2ccc(CSc3ccc(OCC(=O)O)c4c3CCC4)cc2)cc1
19 | 3480 | 356 |  | 1720 | O=C(O)COc1ccc(SCc2ccc(OCc3ccc(F)cc3C(F)(F)F)cc2)c2c1CCC2
20 | 3670 | 111 |  |  | O=C(O)COc1ccc(SCc2cccc(F)c2OCc2ccc(C(F)(F)F)cc2)c2c1CCC2

— ChEMBL document CHEMBL1148881 (Bioorg Med Chem Lett, 2007)
